From article PMC10850501 (Nature Communications, 2024)
Where “and” joins values, the source holds several entries; their conditions need not be identical. Equal values may be shown once. Entries after “also recorded” stand apart in the source; their conditions may differ. Read-outs that look alike come from different tables or passages of the source. Peptide text beside a SMILES is read from it.

Key:
[1] = system: SARS-CoV-2 live virus (B.1 lineage), Vero E6 cells; format: cell-based
[2] = system: SARS-CoV-2 Spike pseudotyped viruses, HEK-293T-ACE2 cells; format: cell-based, SARS-CoV-2 (Wuhan-Hu-1 Spike); conditions: for inhibition of pseudovirus, in words: 10 µM
Cytocompatibility (CCK8) = format: cell-based, human; conditions: human, A549 cells, read-out: cytocompatibility, normalized to serum free media; for viability at 6 h, 10 µM: 0.01 mM peptide; for viability at 6 h, 100 µM: 0.1 mM peptide; for viability at 6 h, 1000 µM: 1 mM peptide
Description: (§1) Cytocompatibility of the peptides was evaluated at 1, 0.1, and 0.01 mM with A549 cells (ATCC CCL-185) cultured in complete media consisting of 90% F-12K and 10% FBS. The A549 cells were utilized after their first passage and seeded at 10,000 cells/well in a 96-well plate for 24 hours. The conditions were prepared in serum-free A549 media and introduced into the wells for 6 hours, after which the condition media were aspirated, the wells were washed once with PBS, and 10 µL of CCK8 was added to 100 µL of PBS[32]. The plate was incubated for 1 hour and read on a Tecan M200 Infinite plate reader at an absorbance of 450 nm with a reference wavelength of 650 nm. The results were analyzed and normalized to the serum-free media control[28],[32],[76].

A549 cells = experiment: Cytocompatibility (CCK8); format: cell-based, human; conditions: human alveolar epithelial A549 cells; 0.01-1 mM
Description: as §1

[3] = Acute IV pharmacokinetics; format: in vivo, rat (female Wistar)
Description: (§2) Female Wistar rats (225–250 g, 8–12 weeks old) were observed and acclimatized for 2 weeks prior to running the studies. They were housed in a controlled environment with temperature at […] and 40–70% humidity. They were kept in an alternating 12-hour light/dark cycle, and food, and water was provided as pellets ad libitum. Female Wistar Rats were used for the pharmacokinetics and the drug clearance analysis from the blood. The two hydrogels (ESBP2 and ESBP3) at 10 mg/ml concentration were injected into the rats via the lateral tail vein. For subcutaneous implants, the substance was injected between the shoulder blades and above the lumbar vertebrae, 200 μL each, using a 25-gauge needle. The hydrogel bolus was prepared with 0.9% saline and was injected within 1–2 minutes. The volume injected was approximately 1% of the total body weight of the rat, which was calculated prior to the dosing. The initial blood draw was performed for baseline, and the subsequent blood collection was performed from the lateral vein using 25 g butterfly needles.
Rat blood samples were collected at 0, 5, 15, 30 minutes, and 1, 2, 4, 8, and 24 hours post-injection timepoints for Acute PK and were aliquoted out into heparinized tubes to prevent coagulation and stored on top of ice packs. Blood collected in K2EDTA anticoagulant tubes was processed to plasma frozen via centrifugation at 13000 RCF for 10 minutes at 4 °C and stored at −80 °C till analysis using HPLC. The body weight was recorded every day prior to the blood collection.

[4] = Daily repeat IV dosing, 10 days (chronic PK/safety); format: in vivo, rat (female Wistar)
Description: as §2
Female Wistar rats (225–250 g, 8–12 weeks old) were weighed and repeatedly dosed (1% by weight) IV with ESBP2 or ESBP3 daily at 10 mg/mL (~3 mM). Rat blood samples were collected daily prior to injection via tail vein. Post 10 days of treatment, animals were allowed to recover for 10 days and then sacrificed. Plasma was stored and analyzed as above. The body weight was recorded every day prior to the blood collection.

[5] = replicate 1, CCK8, 6 h exposure, absorbance 450 nm

**Q.** With `CC[C@H](C)[C@H](NC(=O)CNC(=O)[C@H](CCC(=O)O)NC(=O)[C@H](CC(C)C)NC(=O)[C@H](CO)NC(=O)[C@H](CC(C)C)NC(=O)[C@H](CO)NC(=O)[C@H](CC(C)C)NC(=O)[C@H](CO)NC(=O)[C@H](CC(C)C)NC(=O)[C@H](CO)NC(=O)[C@H](CC(C)C)NC(=O)[C@H](CO)NC(=O)[C@H](CC(C)C)NC(=O)[C@H](CO)NC(=O)[C@H](CCC(=O)O)NC(C)=O)C(=O)N[C@@H](CCC(=O)O)C(=O)N[C@@H](CCC(=O)O)C(=O)N[C@@H](CCC(N)=O)C(=O)N[C@@H](C)C(=O)N[C@@H](CCCCN)C(=O)N[C@H](C(=O)N[C@@H](Cc1ccccc1)C(=O)N[C@@H](CC(C)C)C(=O)N[C@@H](CC(=O)O)C(=O)N[C@@H](CCCCN)C(=O)N[C@@H](Cc1ccccc1)C(=O)N[C@@H](CC(N)=O)C(=O)N[C@@H](Cc1c[nH]cn1)C(=O)N[C@@H](CCC(=O)O)C(=O)N[C@@H](C)C(=O)N[C@@H](CCC(=O)O)C(=O)N[C@@H](CC(=O)O)C(=O)N[C@@H](CC(C)C)C(=O)N[C@@H](Cc1ccccc1)C(=O)N[C@@H](Cc1ccc(O)cc1)C(=O)N[C@@H](CCC(N)=O)C(=O)N[C@@H](CO)C(N)=O)[C@@H](C)O` [ESBP1] as the molecule, how does the “live virus inhibition, in words” value [1] read?
**A.** significant improvement in viral inhibition

**Q.** What about the “Relative PFU” value ([1]; 10 µM) of the same molecule?
**A.** 51.2258 and 58.5437 and 80.4976

**Q.** What about the “Normalized, Average” value [2] of the same molecule?
**A.** 0.2588

**Q.** What about the “inhibition of pseudovirus, in words” value [2] of the same molecule?
**A.** inhibited pseudovirus to a similar degree

**Q.** For `CC[C@H](C)[C@H](NC(=O)CNC(=O)[C@H](CCCCN)NC(=O)[C@H](CC(C)C)NC(=O)[C@H](CO)NC(=O)[C@H](CC(C)C)NC(=O)[C@H](CO)NC(=O)[C@H](CC(C)C)NC(=O)[C@H](CO)NC(=O)[C@H](CC(C)C)NC(=O)[C@H](CO)NC(=O)[C@H](CC(C)C)NC(=O)[C@H](CO)NC(=O)[C@H](CC(C)C)NC(=O)[C@H](CO)NC(=O)[C@H](CCCCN)NC(C)=O)C(=O)N[C@@H](CCC(=O)O)C(=O)N[C@@H](CCC(=O)O)C(=O)N[C@@H](CCC(N)=O)C(=O)N[C@@H](C)C(=O)N[C@@H](CCCCN)C(=O)N[C@H](C(=O)N[C@@H](Cc1ccccc1)C(=O)N[C@@H](CC(C)C)C(=O)N[C@@H](CC(=O)O)C(=O)N[C@@H](CCCCN)C(=O)N[C@@H](Cc1ccccc1)C(=O)N[C@@H](CC(N)=O)C(=O)N[C@@H](Cc1c[nH]cn1)C(=O)N[C@@H](CCC(=O)O)C(=O)N[C@@H](C)C(=O)N[C@@H](CCC(=O)O)C(=O)N[C@@H](CC(=O)O)C(=O)N[C@@H](CC(C)C)C(=O)N[C@@H](Cc1ccccc1)C(=O)N[C@@H](Cc1ccc(O)cc1)C(=O)N[C@@H](CCC(N)=O)C(=O)N[C@@H](CO)C(N)=O)[C@@H](C)O` [KSBP1], which “Normalized, Average” value [2] is on record?
**A.** 0.8193

**Q.** What about the “inhibition of pseudovirus, in words” value [2] of the same molecule?
**A.** significant decrease in inhibitory effect

**Q.** What does the source list for `CSCC[C@H](NC(=O)[C@H](Cc1ccccc1)NC(=O)[C@H](CCCCN)NC(=O)[C@H](CC(=O)O)NC(=O)[C@H](CC(C)C)NC(=O)[C@H](Cc1ccccc1)NC(=O)[C@@H](NC(=O)[C@H](CCCCN)NC(=O)[C@H](CC(C)C)NC(=O)[C@H](CCC(N)=O)NC(=O)[C@H](CCC(=O)O)NC(=O)[C@H](CCC(=O)O)NC(=O)[C@H](CC(C)C)NC(=O)[C@H](C)NC(=O)[C@H](CO)NC(C)=O)[C@@H](C)O)C(=O)N[C@@H](Cc1c[nH]cn1)C(=O)N[C@@H](CCC(=O)O)C(=O)N[C@@H](CC(C)C)C(=O)N[C@@H](CCC(=O)O)C(=O)N[C@@H](CC(=O)O)C(=O)N[C@@H](CC(C)C)C(=O)N[C@@H](CC(C)C)C(=O)N[C@@H](Cc1ccc(O)cc1)C(=O)N[C@@H](CCC(N)=O)C(=O)N[C@@H](CC(C)C)C(=O)N[C@@H](C)C(=O)N[C@@H](CC(C)C)C(N)=O` [SBP2, reference compound] (Ac-SALEEQLKTFLDKFMHELEDLLYQLAL-NH2)?
**A.** in vitro live virus inhibition, in words [1]: inhibition of live virus; viability at 6 h, 10 µM (Cytocompatibility (CCK8); replicate 1, CCK8, 6 h): 105%; viability at 6 h, 10 µM (Cytocompatibility (CCK8); replicate 2, CCK8, 6 h): 92.2%; viability at 6 h, 100 µM (Cytocompatibility (CCK8); replicate 1, CCK8, 6 h): 107%; viability at 6 h, 100 µM (Cytocompatibility (CCK8); replicate 2, CCK8, 6 h): 104%; viability at 6 h, 100 µM (Cytocompatibility (CCK8); replicate 3, CCK8, 6 h): 91.4%; viability at 6 h, 1000 µM (Cytocompatibility (CCK8); [5]): 85.7%; viability at 6 h, 1000 µM (Cytocompatibility (CCK8); replicate 2, CCK8, 6 h): 122%; viability at 6 h, 1000 µM (Cytocompatibility (CCK8); replicate 3, CCK8, 6 h): 150%; cytocompatibility, in words (A549 cells): excellent cytocompatibility

**Q.** With `CC[C@H](C)[C@H](NC(=O)[C@H](Cc1ccc(O)cc1)NC(=O)[C@@H](NC(=O)[C@H](CCCCN)NC(=O)[C@H](Cc1ccc(O)cc1)NC(=O)[C@H](CCC(N)=O)NC(C)=O)[C@@H](C)O)C(=O)N[C@@H](CC(=O)O)C(=O)N[C@@H](CCCCN)C(=O)N[C@@H](CC(N)=O)C(=O)N[C@@H](CC(N)=O)C(=O)N[C@@H](Cc1c[nH]cn1)C(=O)N[C@@H](Cc1ccc(O)cc1)C(=O)N[C@@H](C)C(=O)N[C@@H](CCC(=O)O)C(=O)N[C@@H](CC(=O)O)C(=O)N[C@@H](CCC(=O)O)C(=O)N[C@@H](CCCNC(=N)N)C(=O)N[C@@H](Cc1ccc(O)cc1)C(=O)N[C@@H](CCCCN)C(N)=O` [SBP3] (Ac-QYKTYIDKNNHYAEDERYK-NH2) as the molecule, how does the “Comparative, Average” value [1] read?
**A.** 72.3704

**Q.** And the “live virus plaque inhibition, in words” value [1]?
**A.** no major differences

**Q.** And the viability at 6 h, 10 µM (Cytocompatibility (CCK8); replicate 1, CCK8, 6 h)?
**A.** 104%

**Q.** What about the viability at 6 h, 10 µM (Cytocompatibility (CCK8); replicate 2, CCK8, 6 h) of the same molecule?
**A.** 96.9%

**Q.** And the viability at 6 h, 100 µM (Cytocompatibility (CCK8); replicate 1, CCK8, 6 h)?
**A.** 77.8%

**Q.** What about the viability at 6 h, 100 µM (Cytocompatibility (CCK8); replicate 2, CCK8, 6 h) of the same molecule?
**A.** 94.4%

**Q.** And the viability at 6 h, 100 µM (Cytocompatibility (CCK8); replicate 3, CCK8, 6 h)?
**A.** 95.5%

**Q.** What about the viability at 6 h, 1000 µM (Cytocompatibility (CCK8); [5]) of the same molecule?
**A.** 144%

**Q.** And the viability at 6 h, 1000 µM (Cytocompatibility (CCK8); replicate 2, CCK8, 6 h)?
**A.** 139%

**Q.** Which results are given for “Ac-ESLSLSLSLSLSLEGSALEEQLKTFLDKFMHELEDLLYQLAL-NH2 [ESBP2]”?
**A.** eliminated by ([3]; ESBP2 IV bolus through the tail vein, Wistar rats (n=8)): ≤ 8 h; clearance from the circulation (time) ([3]; acute 24-hour single-dose IV bolus PK, rats): 4 to 8 h; Tmax ([3]; female, rat, 10 mg/mL, ESBP2 IV bolus through the tail vein, Wistar rats (n=8), plasma, HPLC, read-out: time of concentration peak (converted)): 30 min; Cmax ([3]; female, rat, plasma, 10 mg/mL, ESBP2 IV bolus, Wistar rats (n=8), at 30 minutes following injection, read-out: observed maximum concentration): 36000 ng/mL; AUC ([3]; female, rat, plasma, 10 mg/mL, ESBP2 IV bolus, Wistar rats (n=8), read-out: area under the curve): 47000 ng·h/mL; repeat IV dosing safety, in words ([4]; daily IV for 10 days, ~1 w% (10 mg/mL), 225-250 g adult rats): no adverse effect; significant changes in body weight (ESBP3 also animal behavior, adverse events, gross organ morphology) compared to carrier ([4]; daily repeated IV dosing for 10 days, rats): no; in vitro live virus inhibition, in words [1]: inhibition of live virus; also recorded: significantly improved in vitro live virus inhibition; viability at 6 h, 10 µM (Cytocompatibility (CCK8); replicate 1, CCK8, 6 h): 94.5%; viability at 6 h, 10 µM (Cytocompatibility (CCK8); replicate 2, CCK8, 6 h): 98.3%; viability at 6 h, 100 µM (Cytocompatibility (CCK8); replicate 1, CCK8, 6 h): 129%; viability at 6 h, 100 µM (Cytocompatibility (CCK8); replicate 2, CCK8, 6 h): 132%; viability at 6 h, 100 µM (Cytocompatibility (CCK8); replicate 3, CCK8, 6 h): 196%; viability at 6 h, 1000 µM (Cytocompatibility (CCK8); [5]): 117%; viability at 6 h, 1000 µM (Cytocompatibility (CCK8); replicate 2, CCK8, 6 h): 104%; viability at 6 h, 1000 µM (Cytocompatibility (CCK8); replicate 3, CCK8, 6 h): 94.1%; cytocompatibility, in words (A549 cells): excellent cytocompatibility
